# Where a SMILES comes first, the peptide text is derived from it. Bridges are numbered along the chain shown (N, C = ends). [ ]: non-standard residue; d: D form. 2Nal = N[C@@H](Cc1ccc2ccccc2c1)C(=O)O; d2Nal = N[C@H](Cc1ccc2ccccc2c1)C(=O)O; Lys(Et2) = CCN(CC)CCCC[C@H](N)C(=O)O; Lys(iPr) = CC(C)NCCCC[C@H](N)C(=O)O
# How the values were obtained:
# rat NMB receptor = target: T1, rat NMB receptor (Rattus norvegicus, UniProt P24053); experiment: Binding of 125I-[D-Tyr0]NMB to NMB-R transfected BALB 3T3 cells; settings: for fold by which cyclo SS-octa was more potent than the analog: inhibition of ^125I-[Tyr^0]NMB binding to NMB-R transfected cells
# T1 construct: a full length NMB-preferring bombesin receptor clone generated from rat esophagus; expressed in transfected cells; host or cells: BALB 3T3 cells
# T1 sequence (P24053 1-390): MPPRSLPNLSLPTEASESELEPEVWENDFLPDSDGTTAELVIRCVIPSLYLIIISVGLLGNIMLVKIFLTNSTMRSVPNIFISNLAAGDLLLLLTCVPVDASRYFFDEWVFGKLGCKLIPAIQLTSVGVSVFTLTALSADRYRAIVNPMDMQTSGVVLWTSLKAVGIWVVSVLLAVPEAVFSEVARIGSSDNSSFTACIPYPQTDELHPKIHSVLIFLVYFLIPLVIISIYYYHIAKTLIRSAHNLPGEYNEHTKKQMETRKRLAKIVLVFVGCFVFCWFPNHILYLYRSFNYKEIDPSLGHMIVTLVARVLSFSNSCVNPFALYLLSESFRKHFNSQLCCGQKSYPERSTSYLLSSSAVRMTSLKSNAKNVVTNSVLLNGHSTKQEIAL
# Experimental: (§1) Cells were passaged every 3-4 days at confluence, using 0.1% trypsin in 1 mM EDTA. Rat glioblastoma C-6 tumor cells were maintained similarly and were passaged weekly at confluence. Both cell lines were cultured at 37°C in a 5% CO2 atmosphere. Rat AR 42J pancreatic acinar cells were cultured in Dulbecco's modified Eagle's medium (DMEM) without antibiotics and supplemented with 10% (vol/vol) fetal calf serum. The incubation atmosphere consisted of 10% CO2-90% humidified air at 37°C.
# NMB Receptor = target: T2, NMB Receptor (Rattus norvegicus, UniProt P24053); experiment: [3H]inositol phosphates (IP) in NMB-R transfected cells; type: cell-based; settings: for NMB-R Transfected Cells [^3H]IP Alone (10 µ M): analog 10 µM alone, no-additive control 13 ± 3; for NMB-R Transfected Cells [^3H]IP Plus NMB (3 nM): analog 10 µM plus NMB 3 nM, NMB without analog 186 ± 58; for effect on NMB-stimulated increase in [^3H]IP: NMB-R transfected cells, 3 nM NMB, peptide 10 µM
# T2 construct: a full length NMB-preferring bombesin receptor clone generated from rat esophagus; expressed in transfected cells; host or cells: BALB 3T3 cells
# T2 sequence (P24053 1-390): T1 sequence (P24053 1-390)
# Experimental: as §1, with “As described previously [Wada, E., et al. Neuron 6:421 (1991)], BALB 3T3 cells expressing a stably transfected rat NMB receptor (NMB-R transfected cells) were obtained using calcium phosphate precipitation of a full length NMB-preferring bombesin receptor clone generated from rat esophagus and subcloned into a modified version of the pCD2 plasmid. Cells” for “Cells”
# Total phosphoinositides in C-6 cells and in NMB-R transfected cells were determined as described previously, with minor modifications [Benya, R. V. et al. Mol. Pharmacol. 42:1058 (1992); and Wang, L-H. et al. Biochem. J. 286:641 (1992)]. Cells were grown to confluence in 24-well plates and then loaded with 100 µCi/ml myo-[2-^3H]inositol in Dulbecco's modified essential medium with 2% fetal bovine serum at 37°C for 48 hrs. Cells were washed and incubated in phosphoinositide buffer (standard buffer additionally containing 10 mM LiCl, 20 mM HEPES, 2 mM CaCl2, 2% BSA, and 1.2 mM MgSO4) for 15 min and then for 60 min at 37°C with agonists at various concentrations or with 3 nM NMB (a half-maximal effective concentration) and possible antagonists at different concentrations. Reactions were halted using ice-cold 1% HCl in methanol, and the inositol phosphates (IP) were isolated as described previously [Bologna, M. et al. Cancer 63:1714 (1989); and Endo, T. et al. J. Endocrinol. 131:313 (1991)]. Briefly, after loading of the anion exchange column, free [^3H]glycerophosphorylinositol was removed by washing with 5 mM disodium tetraborate in 60 mM sodium formate. Total [^3H]inositol phosphates were then eluted using 100 mM formic acid in 1.0 M ammonium formate as described previously [Benya, R. V. et al. Mol. Pharmacol. 42:1058 (1992); and Wang, L-H. et al. Biochem. J. 286:641 (1992)].
# GRP Receptor = target: T3, GRP Receptor (Rattus norvegicus, UniProt P52500); experiment: Amylase release from rat pancreatic acini; type: cell-based; settings: for Rat Pancreatic Acini Amylase Release Alone (10µM): analog 10 µM alone, no-additive control 4 ± 1; for Rat Pancreatic Acini Amylase Release Plus Bn(0.3 nM): analog 10 µM plus Bn 0.3 nM, Bn without analog 15 ± 1
# T3 construct: from tissue; host or cells: dispersed pancreatic acini
# T3 sequence (P52500 whole entry): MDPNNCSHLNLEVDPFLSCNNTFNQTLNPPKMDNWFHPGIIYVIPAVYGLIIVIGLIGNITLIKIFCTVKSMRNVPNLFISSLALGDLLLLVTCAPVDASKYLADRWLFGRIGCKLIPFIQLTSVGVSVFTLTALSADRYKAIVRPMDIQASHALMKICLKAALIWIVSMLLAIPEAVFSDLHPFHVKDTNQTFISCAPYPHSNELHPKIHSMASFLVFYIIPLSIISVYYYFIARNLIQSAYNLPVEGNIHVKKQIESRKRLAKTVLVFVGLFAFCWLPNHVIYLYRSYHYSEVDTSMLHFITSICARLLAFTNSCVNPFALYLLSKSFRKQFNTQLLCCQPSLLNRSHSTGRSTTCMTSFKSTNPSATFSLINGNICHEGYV
compound,measurement,setting,value
"CC(C)NCCCC[C@@H]1NC(=O)[C@@H](Cc2c[nH]c3ccccc23)NC(=O)[C@H](Cc2ccc(O)cc2)NC(=O)[C@@H](NC(=O)[C@H](N)Cc2ccccc2)CSSC[C@@H](C(=O)N[C@@H](Cc2ccc3ccccc3c2)C(N)=O)NC(=O)[C@H]([C@@H](C)O)NC1=O [Analog #15, [D-Phe^1, Lys(iPr)^5, Thr^6]-cyclo SS-octa] (H-[dF]CY[dW][Lys(iPr)]TC[2Nal]-NH2; disulfide 2-7; N-terminus assumed)",fold by which cyclo SS-octa was more potent than the analog,rat NMB receptor,9 fold
same,NMB-R Transfected Cells [^3H]IP Alone (10 µ M),NMB Receptor,11 ± 1 dpm x 10^3
same,NMB-R Transfected Cells [^3H]IP Plus NMB (3 nM),NMB Receptor,67 ± 7 dpm x 10^3
same,Rat Pancreatic Acini Amylase Release Alone (10µM),GRP Receptor,4 ± 2 % total
same,Rat Pancreatic Acini Amylase Release Plus Bn(0.3 nM),GRP Receptor,13 ± 2 % total
"CCN(CC)CCCC[C@@H]1NC(=O)[C@@H](Cc2c[nH]c3ccccc23)NC(=O)[C@H](Cc2ccc(O)cc2)NC(=O)[C@@H](NC(=O)[C@H](N)Cc2ccccc2)CSSC[C@@H](C(=O)N[C@@H](Cc2ccc3ccccc3c2)C(N)=O)NC(=O)[C@H]([C@@H](C)O)NC1=O [Analog #16, [D-Phe^1, Lys(diEt)^5, Thr^6] cyclo SS-octa] (H-[dF]CY[dW][Lys(Et2)]TC[2Nal]-NH2; disulfide 2-7; N-terminus assumed)",fold by which cyclo SS-octa was more potent than the analog,rat NMB receptor,18 fold
same,NMB-R Transfected Cells [^3H]IP Alone (10 µ M),NMB Receptor,11 ± 2 dpm x 10^3
same,NMB-R Transfected Cells [^3H]IP Plus NMB (3 nM),NMB Receptor,73 ± 15 dpm x 10^3
same,Rat Pancreatic Acini Amylase Release Alone (10µM),GRP Receptor,5 ± 1 % total
same,Rat Pancreatic Acini Amylase Release Plus Bn(0.3 nM),GRP Receptor,12 ± 1 % total
"CC(C)[C@@H]1NC(=O)[C@H](CCCCN)NC(=O)[C@@H](Cc2c[nH]c3ccccc23)NC(=O)[C@H](Cc2ccc(O)cc2)NC(=O)[C@H](NC(=O)[C@H](N)Cc2ccc3ccccc3c2)CSSC[C@@H](C(=O)N[C@@H](Cc2ccc3ccccc3c2)C(N)=O)NC1=O [Analog #10, [D-Cys^2]-cyclo SS-octa] (H-[d2Nal][dC]Y[dW]KVC[2Nal]-NH2; disulfide 2-7; N-terminus assumed)",fold by which cyclo SS-octa was more potent than the analog,rat NMB receptor,6 fold
same,decrease in NMB receptor affinity compared with #1,rat NMB receptor; structure-function comparison of Table 1 values,5 fold
same,effect on NMB-stimulated increase in [^3H]IP,NMB Receptor,completely inhibited
same,NMB-R Transfected Cells [^3H]IP Alone (10 µ M),NMB Receptor,10 ± 3 dpm x 10^3
same,NMB-R Transfected Cells [^3H]IP Plus NMB (3 nM),NMB Receptor,4 ± 2 dpm x 10^3
same,Rat Pancreatic Acini Amylase Release Alone (10µM),GRP Receptor,3 ± 1 % total
same,Rat Pancreatic Acini Amylase Release Plus Bn(0.3 nM),GRP Receptor,16 ± 1 % total
"CC(C)[C@@H]1NC(=O)[C@H](CCCCN)NC(=O)[C@@H](Cc2c[nH]c3ccccc23)NC(=O)[C@H](Cc2ccc(O)cc2)NC(=O)[C@@H](NC(=O)[C@H](N)Cc2c[nH]c3ccccc23)CSSC[C@@H](C(=O)N[C@@H](Cc2ccc3ccccc3c2)C(N)=O)NC1=O [Analog #12, [D-Trp^1]-cyclo SS-octa] (H-[dW]CY[dW]KVC[2Nal]-NH2; disulfide 2-7; N-terminus assumed)",fold by which cyclo SS-octa was more potent than the analog,rat NMB receptor,9 fold
same,NMB-R Transfected Cells [^3H]IP Alone (10 µ M),NMB Receptor,9 ± 2 dpm x 10^3
same,NMB-R Transfected Cells [^3H]IP Plus NMB (3 nM),NMB Receptor,43 ± 2 dpm x 10^3
same,Rat Pancreatic Acini Amylase Release Alone (10µM),GRP Receptor,3 ± 1 % total
same,Rat Pancreatic Acini Amylase Release Plus Bn(0.3 nM),GRP Receptor,13 ± 1 % total
"C[C@@H](O)[C@H](NC(=O)[C@@H]1CSSC[C@H](NC(=O)[C@H](N)Cc2ccc3ccccc3c2)C(=O)N[C@@H](Cc2ccc(O)cc2)C(=O)N[C@H](Cc2c[nH]c3ccccc23)C(=O)N[C@@H](CCCCN)C(=O)N[C@@H]([C@@H](C)O)C(=O)N1)C(N)=O [Analog #6, [Thr^6,8]-cyclo-SS-octa]",fold by which cyclo SS-octa was more potent than the analog,rat NMB receptor,69 fold
same,effect on NMB-stimulated increase in [^3H]IP,NMB Receptor,had no effect
same,NMB-R Transfected Cells [^3H]IP Alone (10 µ M),NMB Receptor,11 ± 2 dpm x 10^3
same,NMB-R Transfected Cells [^3H]IP Plus NMB (3 nM),NMB Receptor,188 ± 30 dpm x 10^3
same,Rat Pancreatic Acini Amylase Release Alone (10µM),GRP Receptor,3 ± 1 % total
same,Rat Pancreatic Acini Amylase Release Plus Bn(0.3 nM),GRP Receptor,14 ± 2 % total
"C[C@@H](O)[C@@H]1NC(=O)[C@H](CCCCN)NC(=O)[C@@H](Cc2c[nH]c3ccccc23)NC(=O)[C@H](Cc2ccc(O)cc2)NC(=O)[C@@H](NC(=O)[C@H](N)Cc2ccccc2)CSSC[C@@H](C(=O)N[C@@H](Cc2ccc3ccccc3c2)C(N)=O)NC1=O [Analog #7, [D-Phe^1, Thr^6]-cyclo-SS-octa] (H-[dF]CY[dW]KTC[2Nal]-NH2; disulfide 2-7; N-terminus assumed)",fold by which cyclo SS-octa was more potent than the analog,rat NMB receptor,18 fold
same,NMB-R Transfected Cells [^3H]IP Alone (10 µ M),NMB Receptor,15 ± 1 dpm x 10^3
same,NMB-R Transfected Cells [^3H]IP Plus NMB (3 nM),NMB Receptor,99 ± 24 dpm x 10^3
same,Rat Pancreatic Acini Amylase Release Alone (10µM),GRP Receptor,3 ± 1 % total
same,Rat Pancreatic Acini Amylase Release Plus Bn(0.3 nM),GRP Receptor,16 ± 1 % total
"C[C@@H](O)[C@H](NC(=O)[C@@H]1CSSC[C@H](NC(=O)[C@H](N)Cc2ccc3ccccc3c2)C(=O)N[C@@H](Cc2ccccc2)C(=O)N[C@H](Cc2c[nH]c3ccccc23)C(=O)N[C@@H](CCCCN)C(=O)N[C@@H]([C@@H](C)O)C(=O)N1)C(N)=O [Analog #18, [Phe^3, Thr^6,8]-cycle SS-octa] (H-[d2Nal]CF[dW]KTCT-NH2; disulfide 2-7)",effect on NMB-stimulated increase in [^3H]IP,NMB Receptor,had no effect
same,NMB-R Transfected Cells [^3H]IP Alone (10 µ M),NMB Receptor,11 ± 1 dpm x 10^3
same,NMB-R Transfected Cells [^3H]IP Plus NMB (3 nM),NMB Receptor,143 ± 11 dpm x 10^3
"CC(C)[C@@H]1NC(=O)[C@H](CCCCN)NC(=O)[C@@H](Cc2c[nH]c3ccccc23)NC(=O)[C@H](Cc2ccc(O)cc2)NC(=O)[C@@H](NC(=O)[C@H](N)Cc2ccccc2)CSSC[C@@H](C(=O)N[C@@H](Cc2ccc3ccccc3c2)C(N)=O)NC1=O [Analog #4, [D-Phe^1]-cyclo SS-octa] (H-[dF]CY[dW]KVC[2Nal]-NH2; disulfide 2-7; N-terminus assumed)",fold by which cyclo SS-octa was more potent than the analog,rat NMB receptor,4 fold
same,NMB-R Transfected Cells [^3H]IP Alone (10 µ M),NMB Receptor,13 ± 1 dpm x 10^3
same,NMB-R Transfected Cells [^3H]IP Plus NMB (3 nM),NMB Receptor,33 ± 4 dpm x 10^3
same,Rat Pancreatic Acini Amylase Release Alone (10µM),GRP Receptor,4 ± 2 % total
same,Rat Pancreatic Acini Amylase Release Plus Bn(0.3 nM),GRP Receptor,14 ± 1 % total
"CC(C)[C@@H]1NC(=O)[C@H](CCCCN)NC(=O)[C@@H](Cc2c[nH]c3ccccc23)NC(=O)[C@H](Cc2ccc(O)cc2)NC(=O)[C@@H](NC(=O)[C@@H](N)Cc2ccc3ccccc3c2)CSSC[C@@H](C(=O)N[C@H](Cc2ccc3ccccc3c2)C(N)=O)NC1=O [Analog #9, [Nal^1,D-Nal^8]-cyclo SS-octa] (H-[2Nal]CY[dW]KVC[d2Nal]-NH2; disulfide 2-7; N-terminus assumed)",fold by which cyclo SS-octa was more potent than the analog,rat NMB receptor,6 fold
same,NMB-R Transfected Cells [^3H]IP Alone (10 µ M),NMB Receptor,8 ± 2 dpm x 10^3
same,NMB-R Transfected Cells [^3H]IP Plus NMB (3 nM),NMB Receptor,28 ± 6 dpm x 10^3
same,Rat Pancreatic Acini Amylase Release Alone (10µM),GRP Receptor,3 ± 1 % total
same,Rat Pancreatic Acini Amylase Release Plus Bn(0.3 nM),GRP Receptor,16 ± 1 % total

# Source: patent EP0606463B1, “NEUROMEDIN B RECEPTOR ANTAGONISTS” (The Administrators of The Tulane Educational Fund, priority 1992, dated 1994)
